Experimental data from article PMC7810238, “Design, synthesis, and evaluation of Bothrops venom serine protease peptidic inhibitors” (The Journal of Venomous Animals and Toxins Including …, 2021).
Where no end group is shown, it is not given here. [ ]: non-standard residue; d: D form.

How the values were obtained:
Bothrops spp venom SVSPs = settings: ref [9]; cited from earlier work
Experimental: In this context, the use of selective SVSPs inhibitory compounds, in association with available commercial antivenoms, could be a starting point for studies aiming snakebite treatment efficacy improvement. Therefore, in the present study, small peptides were evaluated as potential SVSPs inhibitors.

batroxobin = batroxobin thrombin-like activity, chromogenic substrate S-2238; format: biochemical, B. moojeni; settings: for inhibition of batroxobin activity: peptide 60 µg/mL, absorbance 405 nm
Experimental: (§1) Batroxobin and human thrombin activities were evaluated using the chromogenic substrate S-2238 (Chromogenix). Briefly, batroxobin (0.8 U) or human thrombin (0.8U) was pre-incubated at 37°C for 10 minutes with different concentrations (0 to 1 mg/mL for batroxobin, and 60 µg/mL, for human thrombin), of each peptide in Tris/HCl buffer […], containing CaCl2 0.02% (v/v), pH 8.0. Enzymatic reaction was initiated by addition of substrate (200µM), followed by incubation at 37°C, for 20 minutes. When serine protease activity from BjV was evaluated using the chromogenic substrate S2238, 5 µg of BjV and 60 µg/mL of each peptide were employed.
(§2) For all assays using chromogenic substrates, hydrolysis was quantified by evaluation of absorbance at 405 nm, in a spectrophotometer SpectraMax® Paradigm® Multi-Mode reader from Molecular Devices (Sunnyvale, CA).
(§3) SVSPs activity from BjV was also evaluated using the fluorogenic substrate Abz-Ser. Briefly, BjV (5 µg/100µL) was pre-incubated at 37 °C for 10 minutes with 100 µg/mL of each peptide, in PBS pH 7.4 containing 20mM NaCl. Enzymatic reaction was initiated by addition of substrate (10 µM), followed by incubation at 37°C, for 20 minutes. The substrate hydrolysis was monitored following fluorescence emitted at 420 nm, under excitation at 320 nm in a spectrofluorimeter (Victor 3^TM Perkin- Elmer, Boston, MA, USA), as described by Araujo et al. (2000). All the experiments were made in triplicate.
(§4) Figure 2. Evaluation of the effects of synthetic peptides on batroxobin and on human serine proteases activities. (A) Batroxobin activity was evaluated after 20 min, at 37 °C, using the chromogenic substrate S-2238 and the indicated concentrations of synthetic peptides. (B, C, D) Commercial hSPs had their activity evaluated after 20 min, at 37 °C, using their specific chromogenic substrates and batroxobin inhibitory peptides at 60 µg/mL.

[1] = system: Bothrops jararaca venom (BjV) SVSPs; test: BjV SVSPs activity, fluorogenic substrate Abz-Ser; format: biochemical; settings: peptide 100 µg/mL; for inhibition of BjV serine protease activity on Abz-Ser: substrate Abz-Ser 10 µM, BjV 5 µg/100µL, pre-incubated 10 min 37°C, PBS pH 7.4, 20mM NaCl, 20 min 37°C, fluorescence 420 nm (ex 320 nm), triplicate
Experimental: as §3
Figure 3. Evaluation of synthetic peptides on Bothrops venom serine-proteases. BjV was pre-incubated with 100 µg/mL of pepB or pepC and a serine proteases activity was evaluated after 20 min, at 37 °C, with (A) 2 mM of substrate S2238 or (B) 10 µM of substrate Abz-Ser.

human thrombin = human thrombin activity, chromogenic substrate S-2238; format: biochemical; settings: peptide 60 µg/mL; human thrombin 0.8U; pre-incubated 10 min 37°C, Tris/HCl 0.15mM, CaCl2 0.02%, pH 8.0; S-2238 200 µM, 20 min 37°C; 405 nm; triplicate
Experimental: as §1, §2
as §3, with “All the experiments were made in triplicate.” left out

[2] = system: Bothrops jararaca venom (BjV) serine proteases; test: BjV serine protease (thrombin-like) activity, chromogenic substrate S2238; format: biochemical; settings: BjV 5 µg, peptide 60 µg/mL or 100 µg/mL, S2238 200 µM or 2 mM, 20 min 37°C, 405 nm, triplicate
Experimental: as §1, §2
as §3, with “All the experiments were made in triplicate.” left out

human trypsin = test: proteolytic activity of human trypsin, chromogenic substrate BAPNA; format: biochemical; settings: peptide 60 µg/mL; trypsin 126 nM; pre-incubated 10 min 37°C, Tris/HCl 50 mM, CaCl2 0.02%, pH 8.0; BAPNA 1.25 mM, 20 min 37°C; 405 nm; triplicate
Experimental: Proteolytic activity of human trypsin was evaluated using the chromogenic substrate BAPNA (Sigma). Briefly, trypsin (126 nM) was pre-incubated for 10 minutes at 37°C with 60 µg/mL of each peptide in Tris/HCl buffer 50 mM containing CaCl2 0.02% (v/v), pH 8.0. Enzymatic reaction was initiated by addition of substrate (1.25 mM), followed by incubation at 37°C, for 20 minutes.
as §2
as §3, with “Enzymatic reaction was initiated by addition of substrate (10 µM), followed by incubation at 37°C, for 20 minutes.” left out, “All the experiments were made in triplicate.” left out
as §4, with “Evaluation of the effects of synthetic peptides on batroxobin and on human serine proteases activities.” left out

human factor Xa = test: proteolytic activity of human factor Xa, chromogenic substrate CS-11(22); format: biochemical; settings: peptide 60 µg/mL; factor Xa 20nM; pre-incubated 10 min 37°C, Tris/HCl 20 mM, NaCl 150 mM, pH 7.4; CS-11(22) 100µM, 20 min 37°C; 405 nm; triplicate
Experimental: Proteolytic activity of human factor Xa was evaluated using the chromogenic substrate CS-11(22) (Hyphen). Briefly, factor Xa (20nM) was pre-incubated for 10 minutes at 37°C with 60 µg/mL of each peptide in Tris/HCl buffer 20 mM, pH 7.4 containing NaCl 150 mM. Enzymatic reaction was initiated by the addition of substrate (100µM), followed by incubation at 37°C, for 20 minutes.
as §2
as §3, with “Enzymatic reaction was initiated by addition of substrate (10 µM), followed by incubation at 37°C, for 20 minutes.” left out, “All the experiments were made in triplicate.” left out
as §4, with “Evaluation of the effects of synthetic peptides on batroxobin and on human serine proteases activities.” left out

[3] = batroxobin 0.8 U, pre-incubated 10 min 37°C, Tris/HCl 0.15mM, CaCl2 0.02%, pH 8.0, S-2238 200 µM, 20 min 37°C, triplicate

Substance	selectivity as substrate for Bothrops spp venom SVSPs (Bothrops spp venom SVSPs)	inhibition of batroxobin activity (in words) (batroxobin; tested until 1 mg/mL, batroxobin 0.8 U, pre-incubated 10 min 37°C, Tris/HCl 0.15mM, CaCl2 0.02%, pH 8.0, S-2238 200 µM, 20 min 37°C, triplicate)	inhibition of BjV serine protease activity on Abz-Ser [1] [%]	inhibition of batroxobin activity (batroxobin; [3]) [%]	effect on catalytic activity of human thrombin (human thrombin)	inhibition of BjV thrombin-like activity [2] [%]	effect on catalytic activity of human trypsin (human trypsin)	effect on catalytic activity of human factor Xa (human factor Xa)	inhibitory effect of pepB relative to pepC on BjV with Abz-Ser ([1]; pepB compared with pepC) [times less efficient]	efficiency on batroxobin relative to pepC (batroxobin; pepB compared with pepC)
Abz-RPPGFSPFRQ-EDDnp [Abz-Ser]	selective for Bothrops spp venom SVSPs	–	–	–	–	–	–	–	–	–
PFYQAS [pepA, 6-mer peptide designed based on carboxyl-terminus of the substrate Abz-Ser]	–	did not inhibit batroxobin activity	–	–	–	–	–	–	–	–
PFYQSS [pepC, 6-mer peptide related to pepA, a Ser instead of Ala]	–	–	19.3 ± 0.7	18 ± 4	none of the peptides inhibited human serine proteases	18 ± 2	none of the peptides inhibited human serine proteases	none of the peptides inhibited human serine proteases	–	–
PF[dR]QAS [pepB, 6-mer peptide related to pepA, D-Arg replacing Tyr]	–	–	5.4 ± 0.7	36 ± 7	none of the peptides inhibited human serine proteases	15 ± 3	none of the peptides inhibited human serine proteases	none of the peptides inhibited human serine proteases	4	twice more efficient than pepC
